According to the NIST ThermoML archive (doi:10.1021/je400536f):
Numbers after ± are expanded uncertainties.

Key:
[1] = 298.15 K, 100 kPa, Liquid; for viscosity: Concentric cylinders viscometry; for mass density: Vibrating tube method
[2] = mn = molality of the nth substance listed, in mol/kg; conditions: 298.15 K, 100 kPa, Liquid, dip-type immersion conductivity cell

`NC=O` [formamide] gave a viscosity [1] of 3.3 ± 0.1 mPa·s and a mass density [1] of 1129.22 ± 6.9 kg/m3.
In the case of `CCCC[N+](CCCC)(CCCC)CCCC.[O-][Cl+3]([O-])([O-])[O-]` [tetrabutylammonium perchlorate] + C[N+](=O)[O-], the molar conductivity ([2]; m1 = 0.000864) is reported as 0.0101 ± 0.00023 S·m2/mol, the molar conductivity ([2]; m1 = 0.001347) is reported as 0.0098 ± 0.00022 S·m2/mol and the molar conductivity ([2]; m1 = 0.001806) is reported as 0.00954 ± 0.00021 S·m2/mol. For the same molecule, the molar conductivity ([2]; m1 = 0.00243) was 0.00927 ± 0.00021 S·m2/mol, the molar conductivity ([2]; m1 = 0.002992) was 0.00899 ± 0.0002 S·m2/mol and the molar conductivity ([2]; m1 = 0.003528) was 0.00879 ± 0.00019 S·m2/mol. The molar conductivity ([2]; m1 = 0.004186) was 0.00854 ± 0.00018 S·m2/mol, the molar conductivity ([2]; m1 = 0.004998) was 0.00831 ± 0.00018 S·m2/mol and the molar conductivity ([2]; m1 = 0.005715) was 0.00809 ± 0.00017 S·m2/mol. For the same molecule, the molar conductivity ([2]; m1 = 0.006642) was 0.00777 ± 0.00017 S·m2/mol, the molar conductivity ([2]; m1 = 0.007639) was 0.00753 ± 0.00016 S·m2/mol and the molar conductivity ([2]; m1 = 0.008668) was 0.00731 ± 0.00015 S·m2/mol.
In the case of `CNC=O` [N-methylformamide], the viscosity [1] is reported as 1.65 ± 0.07 mPa·s and the mass density [1] is reported as 997.61 ± 5.4 kg/m3.
In the case of `C[N+](=O)[O-]` [nitromethane], the viscosity [1] is reported as 0.62 ± 0.06 mPa·s and the mass density [1] is reported as 1130.15 ± 6.9 kg/m3.
`CCCC[N+](CCCC)(CCCC)CCCC.F[B-](F)(F)F` [tetrabutylammonium tetrafluoroborate] + NC=O gave a molar conductivity ([2]; m1 = 0.000829) of 0.00215 ± 5.8e-05 S·m2/mol, a molar conductivity ([2]; m1 = 0.001452) of 0.00203 ± 5.6e-05 S·m2/mol and a molar conductivity ([2]; m1 = 0.002025) of 0.00192 ± 5.1e-05 S·m2/mol. The molar conductivity ([2]; m1 = 0.002632) was 0.00183 ± 4.7e-05 S·m2/mol, the molar conductivity ([2]; m1 = 0.003181) was 0.00175 ± 4.5e-05 S·m2/mol and the molar conductivity ([2]; m1 = 0.003782) was 0.00167 ± 4.1e-05 S·m2/mol. For the same molecule, the molar conductivity ([2]; m1 = 0.00457) was 0.00158 ± 3.9e-05 S·m2/mol, the molar conductivity ([2]; m1 = 0.005291) was 0.0015 ± 3.6e-05 S·m2/mol and the molar conductivity ([2]; m1 = 0.006131) was 0.00143 ± 3.4e-05 S·m2/mol. For the same molecule, the molar conductivity ([2]; m1 = 0.007056) was 0.00134 ± 3.4e-05 S·m2/mol, the molar conductivity ([2]; m1 = 0.007921) was 0.00125 ± 3.3e-05 S·m2/mol and the molar conductivity ([2]; m1 = 0.008482) was 0.00119 ± 3.2e-05 S·m2/mol.
With `CCCC[N+](CCCC)(CCCC)CCCC.F[B-](F)(F)F` [tetrabutylammonium tetrafluoroborate] + C[N+](=O)[O-] the molar conductivity ([2]; m1 = 0.000773) was 0.00833 ± 0.00022 S·m2/mol, the molar conductivity ([2]; m1 = 0.001303) was 0.00794 ± 0.00021 S·m2/mol and the molar conductivity ([2]; m1 = 0.001731) was 0.00765 ± 0.00019 S·m2/mol. For the same molecule, the molar conductivity ([2]; m1 = 0.002372) was 0.00735 ± 0.00017 S·m2/mol, the molar conductivity ([2]; m1 = 0.002927) was 0.00709 ± 0.00016 S·m2/mol and the molar conductivity ([2]; m1 = 0.003576) was 0.00684 ± 0.00016 S·m2/mol. For the same molecule, the molar conductivity ([2]; m1 = 0.004134) was 0.0066 ± 0.00015 S·m2/mol, the molar conductivity ([2]; m1 = 0.004914) was 0.0064 ± 0.00014 S·m2/mol and the molar conductivity ([2]; m1 = 0.005655) was 0.00617 ± 0.00014 S·m2/mol. It also gave a molar conductivity ([2]; m1 = 0.006577) of 0.00594 ± 0.00013 S·m2/mol, a molar conductivity ([2]; m1 = 0.007569) of 0.00568 ± 0.00012 S·m2/mol and a molar conductivity ([2]; m1 = 0.008556) of 0.00543 ± 0.00012 S·m2/mol.
For `CCCC[N+](CCCC)(CCCC)CCCC.F[B-](F)(F)F` [tetrabutylammonium tetrafluoroborate] + CNC=O, the molar conductivity ([2]; m1 = 0.000795) was 0.00352 ± 9.3e-05 S·m2/mol, the molar conductivity ([2]; m1 = 0.001513) was 0.00331 ± 9e-05 S·m2/mol and the molar conductivity ([2]; m1 = 0.002025) was 0.00314 ± 8.1e-05 S·m2/mol. The molar conductivity ([2]; m1 = 0.002735) was 0.00299 ± 7.4e-05 S·m2/mol, the molar conductivity ([2]; m1 = 0.003295) was 0.00286 ± 6.9e-05 S·m2/mol and the molar conductivity ([2]; m1 = 0.003956) was 0.00275 ± 6.4e-05 S·m2/mol. For the same molecule, the molar conductivity ([2]; m1 = 0.004802) was 0.00262 ± 6.1e-05 S·m2/mol, the molar conductivity ([2]; m1 = 0.005388) was 0.00253 ± 6.1e-05 S·m2/mol and the molar conductivity ([2]; m1 = 0.006053) was 0.0024 ± 5.6e-05 S·m2/mol. It also gave a molar conductivity ([2]; m1 = 0.007327) of 0.00223 ± 5.2e-05 S·m2/mol, a molar conductivity ([2]; m1 = 0.007832) of 0.00216 ± 5e-05 S·m2/mol and a molar conductivity ([2]; m1 = 0.008798) of 0.00204 ± 4.7e-05 S·m2/mol.
In the case of `CCCC[N+](CCCC)(CCCC)CCCC.[O-][Cl+3]([O-])([O-])[O-]` [tetrabutylammonium perchlorate] + NC=O, the molar conductivity ([2]; m1 = 0.000807) is reported as 0.00312 ± 9e-05 S·m2/mol, the molar conductivity ([2]; m1 = 0.001498) is reported as 0.0029 ± 8e-05 S·m2/mol and the molar conductivity ([2]; m1 = 0.002061) is reported as 0.00278 ± 7.1e-05 S·m2/mol. It also gave a molar conductivity ([2]; m1 = 0.002673) of 0.00264 ± 6.6e-05 S·m2/mol, a molar conductivity ([2]; m1 = 0.003238) of 0.00255 ± 6.1e-05 S·m2/mol and a molar conductivity ([2]; m1 = 0.003856) of 0.00244 ± 5.9e-05 S·m2/mol. For the same molecule, the molar conductivity ([2]; m1 = 0.004665) was 0.00231 ± 5.5e-05 S·m2/mol, the molar conductivity ([2]; m1 = 0.005242) was 0.00224 ± 5.1e-05 S·m2/mol and the molar conductivity ([2]; m1 = 0.006209) was 0.00212 ± 4.8e-05 S·m2/mol. It also gave a molar conductivity ([2]; m1 = 0.007157) of 0.00202 ± 4.4e-05 S·m2/mol, a molar conductivity ([2]; m1 = 0.00801) of 0.00196 ± 4.3e-05 S·m2/mol and a molar conductivity ([2]; m1 = 0.008612) of 0.00189 ± 4.3e-05 S·m2/mol.
`CCCC[N+](CCCC)(CCCC)CCCC.[O-][Cl+3]([O-])([O-])[O-]` [tetrabutylammonium perchlorate] + CNC=O gave a molar conductivity ([2]; m1 = 0.000795) of 0.00449 ± 0.00012 S·m2/mol, a molar conductivity ([2]; m1 = 0.001513) of 0.00423 ± 0.00011 S·m2/mol and a molar conductivity ([2]; m1 = 0.002025) of 0.00407 ± 9.9e-05 S·m2/mol. The molar conductivity ([2]; m1 = 0.002735) was 0.00389 ± 9.6e-05 S·m2/mol, the molar conductivity ([2]; m1 = 0.003295) was 0.00371 ± 9e-05 S·m2/mol and the molar conductivity ([2]; m1 = 0.003956) was 0.00358 ± 8.1e-05 S·m2/mol. It also gave a molar conductivity ([2]; m1 = 0.004802) of 0.00342 ± 7.7e-05 S·m2/mol, a molar conductivity ([2]; m1 = 0.005388) of 0.00333 ± 7.4e-05 S·m2/mol and a molar conductivity ([2]; m1 = 0.006053) of 0.00323 ± 7.3e-05 S·m2/mol. For the same molecule, the molar conductivity ([2]; m1 = 0.006823) was 0.00309 ± 7e-05 S·m2/mol, the molar conductivity ([2]; m1 = 0.007832) was 0.00293 ± 6.6e-05 S·m2/mol and the molar conductivity ([2]; m1 = 0.008798) was 0.00279 ± 6.2e-05 S·m2/mol.
